Data published in patent EP1763509B1, “ALPHA-HELICAL MIMETICS” (THE WALTER AND ELIZA HALL INSTITUTE OF MEDICAL RESEARCH, priority 2004, dated 2006).

What was measured:
Bcl-wΔ29 = target: T1, Bcl-wΔ29 (Homo sapiens, UniProt Q92843); assay: Alphascreen GST competition binding assay, benzoylurea compounds vs Biotinylated Bim BH3-26 peptide on GST tagged Bclw ΔC29 protein; details: GST tagged Bclw ΔC29 protein 0.05 nM, Biotinylated Bim BH3-26 peptide 3.0 nM, 4 hours at room temperature; values marked a tested in a separate experiment; n.b. = not binding in the assay conditions
T1 construct: GST tagged Bclw ΔC29 protein
T1 sequence (Q92843 1-164 limits assumed): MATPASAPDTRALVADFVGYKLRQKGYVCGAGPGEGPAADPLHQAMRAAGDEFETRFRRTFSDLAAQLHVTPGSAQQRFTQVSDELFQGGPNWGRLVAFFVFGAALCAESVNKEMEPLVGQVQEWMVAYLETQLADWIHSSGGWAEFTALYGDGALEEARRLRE

Bcl-xLΔ25 = target: T2, Bcl-xLΔ25 (Homo sapiens, UniProt Q07817); assay: Alphascreen GST competition binding assay, benzoylurea compounds vs Biotinylated Bim BH3-26 peptide on GST tagged Bcl-xL ΔC25 protein; details: GST tagged Bcl-xL ΔC25 protein 0.6 nM, Biotinylated Bim BH3-26 peptide 5.0 nM, 4 hours at room temperature; n.b. = not binding in the assay conditions
T2 construct: GST tagged Bcl-xL ΔC25 protein

Mcl-1 = Mcl-1 (Homo sapiens, UniProt Q07820); assay: Alphascreen GST competition binding assay, benzoylurea compounds vs Biotinylated Bak BH3 peptide on GST tagged Mcl-1 protein; details: GST tagged Mcl-1 protein 0.4 nM, Biotinylated Bak BH3 peptide 4.0 nM, 4 hours at room temperature; n.b. = not binding in the assay conditions
Mcl-1, sequence (Q07820 whole entry, species assumed): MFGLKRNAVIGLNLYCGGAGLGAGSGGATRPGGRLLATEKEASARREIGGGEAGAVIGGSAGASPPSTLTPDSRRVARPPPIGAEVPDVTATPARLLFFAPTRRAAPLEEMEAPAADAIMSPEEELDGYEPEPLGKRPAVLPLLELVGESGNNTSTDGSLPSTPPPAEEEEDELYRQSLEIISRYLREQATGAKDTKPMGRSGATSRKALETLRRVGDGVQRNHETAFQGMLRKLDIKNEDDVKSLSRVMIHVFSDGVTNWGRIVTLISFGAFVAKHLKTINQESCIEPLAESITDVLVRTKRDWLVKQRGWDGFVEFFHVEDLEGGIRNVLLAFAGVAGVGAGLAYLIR

T2 sequence (Q07817 1-208 limits assumed, stated change not applied): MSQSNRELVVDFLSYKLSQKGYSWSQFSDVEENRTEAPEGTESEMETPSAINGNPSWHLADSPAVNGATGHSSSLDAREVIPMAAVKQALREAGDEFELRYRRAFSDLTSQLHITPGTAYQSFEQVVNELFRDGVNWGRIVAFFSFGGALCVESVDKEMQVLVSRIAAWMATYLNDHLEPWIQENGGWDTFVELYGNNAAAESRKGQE

Compound | IC50 (Bcl-wΔ29) [µM] | IC50 (Bcl-xLΔ25) [µM] | IC50 (Mcl-1) [µM] | Bcl-xLΔ25 IC50 (µM) (Bcl-xLΔ25) | Mcl-1 IC50 (µM) (Mcl-1)
CCC(C)N(C(=O)N[C@@H](CSCc1ccccc1)C(=O)O)C(=O)c1cccc(-c2ccccc2)c1 (mixture of isomers) [(4)] | 149 | 148 |  |  | 
CCCN(C(=O)N[C@@H](CSCc1ccccc1)C(=O)O)C(=O)c1cccc(-c2ccccc2)c1 [(1)] | 38 | 70.1 |  |  | 
CCCCN(C(=O)N[C@@H](CSCc1ccccc1)C(=O)O)C(=O)c1cccc(-c2ccccc2)c1 [(2)] | 57 | 56.8 |  |  | 
CC(C)CN(C(=O)N[C@@H](CSCc1ccccc1)C(=O)O)C(=O)c1cccc(-c2ccccc2)c1 [(3)] | 65 | 65.8 |  |  | 
CC(C)N(C(=O)N[C@@H](CSCc1ccccc1)C(=O)O)C(=O)c1cccc(-c2ccccc2)c1 [(5)] | 266 | 153 |  |  | 
O=C(O)[C@H](CSCc1ccccc1)NC(=O)N(C(=O)c1cccc(-c2ccccc2)c1)C1CCCCC1 [(6)] | 73 | 54.2 |  |  | 
O=C(O)[C@H](CSCc1ccccc1)NC(=O)N(CC1CCCCC1)C(=O)c1cccc(-c2ccccc2)c1 [(7)] | 37 | 45.2 |  |  | 
O=C(O)[C@H](CSCc1ccccc1)NC(=O)N(Cc1ccccc1)C(=O)c1cccc(-c2ccccc2)c1 [(8)] | 46 | 36.4 |  |  | 
Cc1ccc(CN(C(=O)N[C@@H](CSCc2ccccc2)C(=O)O)C(=O)c2ccc(-c3ccccc3)cc2)cc1 [(82)] | 45 | 27 | 169 |  | 
COc1ccc(CN(C(=O)N[C@@H](CSCc2ccccc2)C(=O)O)C(=O)c2ccc(-c3ccccc3)cc2)cc1 [(83)] | 35 | 14 | 77 |  | 
O=C(O)[C@H](CSCc1ccccc1)NC(=O)N(Cc1ccc(Cl)cc1)C(=O)c1ccc(-c2ccccc2)cc1 [(84)] | 27 | 11 | 61 |  | 
O=C(O)[C@H](CSCc1ccccc1)NC(=O)N(Cc1ccc(Cl)c(Cl)c1)C(=O)c1ccc(-c2ccccc2)cc1 [(85)] | 40 |  | 95 | n.b.^b | 
CCCN(C(=O)N[C@@H](CSCc1ccccc1)C(=O)O)C(=O)c1ccc(/C=C/c2ccccc2)cc1 [(86)] | 82 | 283 |  |  | n.b.^b
CCCN(C(=O)N[C@@H](CSCc1ccccc1)C(=O)O)C(=O)c1ccc(CCc2ccccc2)cc1 [(89)] | 50 | 86 | 107 |  | 
CCCSC[C@H](NC(=O)N(CCC)C(=O)c1cccc(C#Cc2ccccc2)c1)C(=O)O [(90)] | 39 | 22 | 70 |  | 
CCCN(C(=O)N[C@@H](CSCC(C)C)C(=O)O)C(=O)c1cccc(C#Cc2ccccc2)c1 [(91)] | 32 | 16 | 92 |  | 
CCCN(C(=O)N[C@@H](CSC(C)C)C(=O)O)C(=O)c1cccc(C#Cc2ccccc2)c1 [(92)] | 67 | 36 |  |  | n.b.^b
CCCN(C(=O)N[C@@H](CSc1ccccc1)C(=O)O)C(=O)c1cccc(C#Cc2ccccc2)c1 [(93)] | 26 | 27 | 53 |  | 
CCCN(C(=O)N[C@@H](CSCCc1ccccc1)C(=O)O)C(=O)c1cccc(C#Cc2ccccc2)c1 [(94)] | 19 | 23 | 46 |  | 

Compound | IC50 (Bcl-wΔ29) [µM] | IC50 (Bcl-xLΔ25) [µM] | IC50 (Mcl-1) [µM] | Bcl-xLΔ25 IC50 (µM) (Bcl-xLΔ25) | Mcl-1 IC50 (µM) (Mcl-1)
CCCN(C(=O)N[C@@H](CSCc1ccccc1-c1ccccc1)C(=O)O)C(=O)c1cccc(C#Cc2ccccc2)c1 [(96)] | 52 | 153 | 133 |  | 
CCCSC[C@H](NC(=O)N(CCC)C(=O)c1cccc(-c2ccccc2Cl)c1)C(=O)O [(97)] | 68 | 199 | 264 |  | 
CCCN(C(=O)N[C@@H](CSCC(C)C)C(=O)O)C(=O)c1cccc(-c2ccccc2Cl)c1 [(98)] | 32 | 93 | 107 |  | 
CCCN(C(=O)N[C@@H](CSC(C)C)C(=O)O)C(=O)c1cccc(-c2ccccc2Cl)c1 [(99)] | 60 | 163 | 168 |  | 
CCCN(C(=O)N[C@@H](CSc1ccccc1)C(=O)O)C(=O)c1cccc(-c2ccccc2Cl)c1 [(100)] | 18 | 48 | 52 |  | 
CCCN(C(=O)N[C@@H](CSCCc1ccccc1)C(=O)O)C(=O)c1cccc(-c2ccccc2Cl)c1 [(101)] | 19 | 42 | 55 |  | 
CCCN(C(=O)N[C@@H](CSCCCc1ccccc1)C(=O)O)C(=O)c1cccc(-c2ccccc2Cl)c1 [(102)] | 18 | 50 | 51 |  | 
CCCN(C(=O)N[C@@H](CSCc1ccccc1-c1ccccc1)C(=O)O)C(=O)c1cccc(-c2ccccc2Cl)c1 [(103)] | 18 | 53 | 36 |  | 
CCCN(C(=O)Cc1cccc(-c2ccccc2)c1)C(=O)N[C@@H](CSCc1ccccc1)C(=O)O [(104)] | 205 | 187 | 267 |  | 
CCCN(C(=O)Cc1ccccc1)C(=O)N[C@@H](CSCc1ccccc1)C(=O)O [(105)] | 71 | 183 | 164 |  | 
CC(C)Cc1cccc(C(=O)N(Cc2ccccc2)C(=O)N[C@@H](CSCc2ccccc2)C(=O)O)c1 [(107)] | 37 | 70 | 73 |  | 
CCCN(C(=O)N[C@@H](CSCC1CC1)C(=O)O)C(=O)c1cccc(C#Cc2ccccc2)c1 [(128)] |  | 53 |  |  | 
CCCN(C(=O)N[C@@H](CSCC1CCC1)C(=O)O)C(=O)c1cccc(C#Cc2ccccc2)c1 [(129)] |  | 37 |  |  | 
CCCCN(C(=O)N[C@@H](CSCC(C)C)C(=O)O)C(=O)c1cccc(C#Cc2ccccc2)c1 [(130)] |  | 39 |  |  | 
CC(C)CSC[C@H](NC(=O)N(CC(C)C)C(=O)c1cccc(C#Cc2ccccc2)c1)C(=O)O [(131)] |  | 20 |  |  | 
CC(C)CCN(C(=O)N[C@@H](CSCC(C)C)C(=O)O)C(=O)c1cccc(C#Cc2ccccc2)c1 [(132)] |  | 24 |  |  | 
CSCCN(C(=O)N[C@@H](CSCC(C)C)C(=O)O)C(=O)c1cccc(C#Cc2ccccc2)c1 [(133)] |  | 27 |  |  | 
CCCN(C(=O)N[C@@H](CSCc1ccccc1)C(=O)O)C(=O)c1cccc(C#Cc2ccccc2[N+](=O)[O-])c1 [(135)] |  | 32 | 57 |  | 
CCCN(C(=O)N[C@@H](CSCc1ccccc1)C(=O)O)C(=O)c1cccc(C#CCC(C)C)c1 [(136)] |  | 23 | 204 |  | 

Compound | IC50 (Bcl-wΔ29) [µM] | IC50 (Bcl-xLΔ25) [µM] | IC50 (Mcl-1) [µM] | Bcl-xLΔ25 IC50 (µM) (Bcl-xLΔ25) | Mcl-1 IC50 (µM) (Mcl-1)
CCCN(C(=O)N[C@@H](CSCC(C)C)C(=O)O)C(=O)c1cccc(C#Cc2ccc(F)cc2)c1 [(137)] |  | 9.5 | 132 |  | 
CCCN(C(=O)N[C@@H](CSCC(C)C)C(=O)O)C(=O)c1cccc(C#Cc2ccc(Cl)cc2)c1 [(138)] |  | 26 | 146 |  | 
CCCN(C(=O)N[C@@H](CSCC(C)C)C(=O)O)C(=O)c1cccc(C#Cc2ccc(Br)cc2)c1 [(139)] |  | 28 | 80 |  | 
CCCN(C(=O)N[C@@H](CSCC(C)C)C(=O)O)C(=O)c1cccc(C#Cc2cccc(F)c2)c1 [(140)] |  | 44 |  |  | n.b.^b
CCCN(C(=O)N[C@@H](CSCC(C)C)C(=O)O)C(=O)c1cccc(C#Cc2cccc(Cl)c2)c1 [(141)] |  | 28 | 84 |  | 
CCCN(C(=O)N[C@@H](CSCC(C)C)C(=O)O)C(=O)c1cccc(C#Cc2cccc(Br)c2)c1 [(142)] |  | 32 | 70 |  | 
CCCN(C(=O)N[C@@H](CSCC(C)C)C(=O)O)C(=O)c1cccc(C#Cc2ccccc2C)c1 [(143)] |  | 30 | 74 |  | 
CCCN(C(=O)N[C@@H](CSCC(C)C)C(=O)O)C(=O)c1cccc(C#Cc2cccc(C)c2)c1 [(144)] |  | 39 | 66 |  | 
CCCN(C(=O)N[C@@H](CSCC(C)C)C(=O)O)C(=O)c1cccc(C#Cc2ccc(C)cc2)c1 [(145)] |  | 48 | 92 |  | 
CCCN(C(=O)N[C@@H](CSCC(C)C)C(=O)O)C(=O)c1cccc(C#Cc2ccccc2OC)c1 [(146)] |  | 46 |  |  | n.b.^b
CCCN(C(=O)N[C@@H](CSCC(C)C)C(=O)O)C(=O)c1cccc(C#Cc2ccc(OC)cc2)c1 [(147)] |  | 50 | 85 |  | 
CCCN(C(=O)N[C@@H](CSCC(C)C)C(=O)O)C(=O)c1cccc(C#Cc2ccc(Oc3ccccc3)cc2)c1 [(148)] |  | 172 | 71 |  | 
CCCN(C(=O)N[C@@H](CSCC(C)C)C(=O)O)C(=O)c1cccc(C#Cc2ccc(C(C)(C)C)cc2)c1 [(149)] |  | 107 |  |  | 
CCCN(C(=O)N[C@@H](CSCC(C)C)C(=O)O)C(=O)c1cccc(C#Cc2ccncc2)c1 [(150)] |  |  |  | n.b.^b | 
CCCN(C(=O)N[C@@H](CSCC(C)C)C(=O)O)C(=O)c1cccc(C#Cc2cccnc2)c1 [(151)] |  | 212 |  |  | 
CCCN(C(=O)N[C@@H](CSCC(C)C)C(=O)NS(=O)(=O)c1ccc(Br)cc1)C(=O)c1cccc(C#Cc2ccccc2)c1 [(152)] |  | 48 |  |  | 
CCCN(C(=O)N[C@@H](CSCC(C)C)C(=O)NS(=O)(=O)c1cccc(Br)c1)C(=O)c1cccc(C#Cc2ccccc2)c1 [(153)] |  | 40 |  |  | 
CCCN(C(=O)N[C@@H](CSCC(C)C)C(=O)NS(=O)(=O)c1ccc(-c2ccccc2)cc1)C(=O)c1cccc(C#Cc2ccccc2)c1 [(154)] |  | 42 |  |  | 
CCCN(C(=O)N[C@@H](CSCC(C)C)C(=O)NS(=O)(=O)c1ccc(NCCSc2ccccc2)c([N+](=O)[O-])c1)C(=O)c1cccc(C#Cc2ccccc2)c1 [(156)] |  | 10 |  |  | 
